In patent publication US20260232666A1, “COMPOSITIONS AND METHODS FOR INHIBITION OF RAS” (TheRas, Inc., priority 2023, published 2026):

How the values were obtained:
[1] = molecular target: T1, GTP-loaded KRAS4b (amino acids 1-169) G12C/C118S protein (Homo sapiens, UniProt P01116, C118S/G12C); test: Covalent cysteine 12 modification by MALDI-TOF MS, GTP-loaded KRAS G12C; assay type: binding; conditions: 15 minutes reaction time point
T1 construct: KRAS4b (amino acids 1-169) G12C/C118S protein; made in house
Experimental: (§1) Biological Example 1: Covalent Cysteine 12 Modification Analysis Using Matrix Assisted Laser Desorption Ionization-Time of Flight Mass Spectrometry (MALDI-TOF MS)
(§2) MALDI-TOF MS analysis was performed using 1 μM protein (KRAS G12C), and 1:2.5 protein to compound ratio.
(§3) Reaction: 1 μM of GppNHp, GTP, or GDP-loaded KRAS4b (amino acids 1-169) G12C/C118S protein (produced in-house by Protein Expression Laboratory, FNLCR/Leidos Biomed) in 20 mM 4-(2-hydroxyethyl)-1-piperazineethanesulfonic acid (HEPES) buffer containing 150 mM NaCl, 1 mM MgCl2, pH 7.3 was prepared freshly before assay. Twelve-μL aliquots of protein were dispensed onto low volume 384-well plate, then 30 nL of tested compounds from 1 mM DMSO stocks were added to appropriate wells using ECHO 555 acoustic liquid handler (Labcyte Inc.). For each reaction/assay, three blanks were prepared by mixing 12 μL of protein solution with 30 nL DMSO. The contents of the wells were carefully mixed by aspiration, and then each plate was sealed with an adhesive cover, centrifuged at 2000 g for 1 minute, and kept in the dark at room temperature until 5 min, 15 min, 30 min, 2 h, or 6 h collections.
(§4) Target pretreatment: Before each assay MALDI target (Bruker MPT 384 ground steel BC) was pre-treated by pipetting on each spot 0.75 μL of saturated sinapinic acid in acetonitrile (ACN).
(§5) Sample preparation: At collection time point, 2 μL of reaction mixtures were pipetted out into 15 μL MALDI matrix solution (saturated solution of sinapinic acid in 1:1 ACN:water solution containing 0.75% trifluoroacetic acid (TFA)) deposited on 384 well polypropylene plate. Resulting solution was mixed by aspiration, centrifuged at 2000 g for 1 minute, then 1.5 μL aliquots were dispensed on pre-treated MALDI target using Beckman Coulter Biomek FXP 96/384-Span-8 Laboratory Automation Workstation. Finally, the MALDI target was dried under mild vacuum to produce spots with fine crystalline structure.
(§6) Measurements: MALDI-TOF measurements were performed on a Bruker Daltonics rapiflex Tissuetyper TOF-TOF mass spectrometer using linear mode and mass range from 18.6 to 21.6 kDa. Detector gain was set to 3.3×(483 V), sample rate to 5 GS/s, real time smoothing to medium (175 MHz), laser smart beam pattern was set to: “MS Thin Layer M5”, and the laser frequency was 10000 Hz. Spectra were automatically collected using custom AutoXecute method. Laser power was auto adjusted using fuzzy control. The peak selection range was set to be between 19000 and 21500 Da. Peak evaluation uses half width parameter set to be smaller than 40 Da for processed spectrograms (centroid peak detection; smoothed by SavitzkyGolay algorithm using 7 m/z width and 2 cycles; baseline was subtracted using median algorithm with flatness 1 and median level 0.01). Fuzzy control used Proteins/Oligonucleotides protocol with minimum half width 1/10 times above threshold. Up to 40000 satisfactory shots were collected in 10000 shot steps. Dynamic termination was implemented to finish data collection when peak signal/noise ratio was reaching value of 50.
(§7) Spectra processing: Spectra were smoothed by SavitzkyGolay algorithm using 7 m/z width and three cycles. Centroid peak detection algorithm was used with signal to noise threshold set to 6, relative intensity threshold 4%, peak width 10 m/z and median baseline subtraction using flatness of 1 and median level of 0.01. Peak intensity and area under the peak were evaluated and recorded for all peaks between 19,300 Da and 21,550 Da.
(§8) Calculation of percent modification: Percent modification was calculated as a ratio of peak height for protein modified by compound to sum of peak height of remaining protein plus peak height for protein modified by compound. If multiple modifications were observed each was calculated as a ratio of peak height for given modification versus sum of peak heights for all observed protein species. Data reported in Table 4 are from 15 minutes reaction time point. […]

[2] = molecular target: T2, GDP-loaded KRAS4b (amino acids 1-169) G12C/C118S protein (Homo sapiens, UniProt P01116, C118S/G12C); test: Covalent cysteine 12 modification by MALDI-TOF MS, GDP-loaded KRAS G12C; assay type: binding; conditions: 15 minutes reaction time point
T2 construct: KRAS4b (amino acids 1-169) G12C/C118S protein; made in house
Experimental: as §1, §2, §3, §4, §5, §6, §7, §8

[3] = tested on: pERK in NCI-H358 cells; test: Cell-based pERK HTRF assay (pERK inhibition in H358 cells); conditions: 30 min incubation
Experimental: Biological Example 3: Cell-Based pERK HTRF Assay
pERK assays (Perkin Elmer) were used to determine the effectiveness of compounds of the present disclosure in disrupting KRAS G12C protein/effector signaling in cells.
On Day 1, cells (NCI-H358) were seeded into 96-well plates at 4×10^4 cells/well in complete growth media (RPMI, 10% FBS).
On Day 2, cells were treated with compounds at 0.25% DMSO. The source plate was created with compounds diluted in media at 5-fold the final assay concentration. The compounds were run in a 9-point concentration curve starting at 75 μM, with a 3-fold dilution between concentrations. 20 μL was transferred onto the cell plates (final volume in wells was 100 μL). Plates were harvested after 30 min incubation by aspirating media and adding kit-supplied 1× supplemented lysis buffer to all wells (75 μl per well). Plates were then placed on a plate shaker and incubated at 850 rpm for an additional 30 min.
Antibody mixture solution was prepared by diluting aliquoted d2 and Eu Cryptate antibodies 1:20 in kit supplied detection buffer, then mixed the diluted antibodies solutions (1:1 v:v). 4 μL of this solution was then added to a 384-well detection plate (Perkin Elmer; 6008230).
Samples were homogenized by pipetting up and down and then transferred (16 μL of cell lysates) from the 96-well cell culture plate to two wells of the HTRF 384-well detection plate containing the antibody solution. Plates were centrifuged (524 g for […]) and allowed to incubate between 4 and 24 h at room temperature. Maximum signal is reached after 4 h incubation time and remains stable over a period of 24 hours. Therefore, readings can be made between 4 and 24 h of incubation. Plates were centrifuged again (524 g for 1 min), and analyzed on the En Vision plate reader using the following settings: Excitation 320 nm, Bandwidth 75 nm; Emission 615 nm, Bandwidth 85 nm; Gain 100%; Flashes 100; Lag 60 μs.
The percent of modification of GppNHp, GTP, or GDP loaded KRAS G12C by MALDI-TOF MS, biochemical Raf1 RBD-KRAS G12C-GppNHp disruption assay IC50, and pERK inhibition IC50 of selected compounds described herein are shown in Table 4. For percent of modification at 15 minutes (MALDI-TOF MS) of GppNHp, GTP, or GDP loaded KRAS G12C: A: percent of modification ≥70%; B: 50≤percent of modification <70%; C: 10%≤percent of modification <50%; D: percent of modification <10%. […] For pERK inhibition in H358 cell assay: A: IC50≤0.1 μM; B: 0.1 μM<IC50≤1 μM; C: IC50>1 μM. Blanks in the table represent that compound was not tested in the indicated assay.

[4] = molecular target: T3, GppNHp-loaded KRAS4b (amino acids 1-169) G12C/C118S protein (Homo sapiens, UniProt P01116, C118S/G12C); test: Covalent cysteine 12 modification by MALDI-TOF MS, GppNHp-loaded KRAS G12C; assay type: binding; conditions: 15 minutes reaction time point
T3 construct: KRAS4b (amino acids 1-169) G12C/C118S protein; made in house
Experimental: as §1, §2, §3, §4, §5, §6, §7, §8

Row | Structure (SMILES) | GTP-KRAS G12C percent of modification [1] | GDP-KRAS G12C percent of modification [2] | IC50 ([3]; Homo sapiens, NCI-H358, 0.5 h) [nM] | GppNHp-KRAS G12C percent of modification [4] | IC50 [3] [nM]
1 | CCN(c1nc(OC[C@@H]2C[C@@H](OC)CN2C)nc2c(F)c(-c3ccc(F)c4sc(N)c(C#N)c34)c(C(F)(F)F)cc12)[C@@H]1CCN(C(=O)[C@@H](F)Cl)[C@@H]1C [Compound 178] | D (percent of modification <10%) | D (percent of modification <10%) | 100 to 1000 | D (percent of modification <10%) | –
2 | C=CC(=O)N1CC[C@@H](N(C)c2nc(O[C@@H](C)[C@@H]3C(=C)CCN3C)nc3c(F)c(-c4ccc(F)c5sc(N)c(C#N)c45)c(Cl)cc23)[C@H]1C [Compound 200] | B (50≤percent of modification <70%) | C (10%≤percent of modification <50%) | < 100 | A (percent of modification ≥70%) | –
3 | CCN(c1nc(OC[C@@H]2C[C@@H](OC)CN2C)nc2c(F)c(-c3ccc(F)c4sc(N)c(C#N)c34)c(C(F)(F)F)cc12)[C@@H]1CCN(C(=O)[C@H](F)Cl)[C@@H]1C [Compound 179] | C (10%≤percent of modification <50%) | C (10%≤percent of modification <50%) | < 100 | B (50≤percent of modification <70%) | –
4 | C=CC(=O)N1CCC(N(C)c2nc(OC(C)C3CC(=C(F)F)CN3C)nc3c(F)c(-c4ccc(F)c5sc(N)c(C#N)c45)c(Cl)cc23)C1C (centres unmarked) [Compound 206] | B (50≤percent of modification <70%) | A (percent of modification ≥70%) | 100 to 1000 | A (percent of modification ≥70%) | –
5 | C=CC(=O)N1CC[C@@H](N(C)c2nc(O[C@@H](C)[C@@H]3C(=C(F)F)CCN3C)nc3c(F)c(-c4ccc(F)c5sc(N)c(C#N)c45)c(C(F)(F)F)cc23)[C@H]1C [Compound 207] | C (10%≤percent of modification <50%) | B (50≤percent of modification <70%) | < 100 | B (50≤percent of modification <70%) | –
6 | COC1CC(COc2nc(N(C)C3CCN(C(=O)/C=C/c4nc(C(C)(F)F)no4)C3C)c3cc(Cl)c(-c4ccc(F)c5sc(N)c(C#N)c45)c(F)c3n2)N(C)C1 (centres unmarked) [Compound 190] | B (50≤percent of modification <70%) | B (50≤percent of modification <70%) | < 100 | B (50≤percent of modification <70%) | –
7 | C=CC(=O)N1CC[C@@H](N(C)c2nc(OC[C@@H]3C(=C(F)F)CCN3C)nc3c(F)c(-c4ccc(F)c5sc(N)c(C#N)c45)c(Cl)cc23)[C@H]1C [Compound 198] | B (50≤percent of modification <70%) | B (50≤percent of modification <70%) | < 100 | B (50≤percent of modification <70%) | –
8 | C=CC(=O)N1CC[C@@H](N(C)c2nc(OC[C@@H]3[C@@H](OC)CCN3C)nc3c(F)c(-c4ccc(F)c5sc(N)c(C#N)c45)c(C(F)(F)F)cc23)[C@H]1C [Compound 197] | A (percent of modification ≥70%) | A (percent of modification ≥70%) | < 100 | A (percent of modification ≥70%) | –
9 | C=CC(=O)N1CC[C@@H](N(C)c2nc(OC[C@@H]3[C@@H](OC)CCN3C)nc3c(F)c(-c4ccc(F)c5sc(N)c(C#N)c45)c(Cl)cc23)[C@H]1C [Compound 196] | A (percent of modification ≥70%) | A (percent of modification ≥70%) | < 100 | A (percent of modification ≥70%) | –
10 | C[C@@H]1CN(c2nc(OC[C@@]34CCCN3C[C@H](F)C4)nc3c(F)c(-c4ccc(F)c5sc(N)c(C#N)c45)c(C(F)(F)F)cc23)[C@@H](C)CN1C(=O)[C@@H](F)Cl [Compound 180] | D (percent of modification <10%) | C (10%≤percent of modification <50%) | < 100 | D (percent of modification <10%) | –
11 | C[C@@H]1[C@H](N(C)c2nc(OC[C@@]34CCCN3C[C@H](F)C4)nc3c(F)c(-c4ccc(F)c5sc(N)c(C#N)c45)c(C(F)(F)F)cc23)CCN1C(=O)[C@H](F)Cl (atropisomer, axis not shown; (aS)) [Compound 183, 2-amino-4-((S)-4-(((2R,3R)-1-((R)-2-chloro-2-fluoroacetyl)-2-methylpyrrolidin-3-yl)(methyl)amino)-8-fluoro-2-(((2R,7aS)-2-fluorotetrahydro-1H-pyrrolizin-7a(5H)-yl)methoxy)-6-(trifluoromethyl)quinazolin-7-yl)-7-fluorobenzo[b]thiophene-3-carbonitrile] | A (percent of modification ≥70%) | A (percent of modification ≥70%) | – | A (percent of modification ≥70%) | < 100
